# Read-outs that look alike come from different tables or passages of the source.
# Assays:
# Test in all cases: MIC, broth microdilution
# [1] = system: MBL-producing isolates (Enterobacterales); type: cell-based; conditions: Enterobacterales with metallo-carbapenemases (47), CDC AR Bank, fixed concentration (μg/mL) in label
# [2] = system: E. coli CDC-119 (NDM-1), PBP3 mutations; type: cell-based; conditions: Escherichia coli
# [3] = system: E. coli CDC-137 (NDM-6), PBP3 mutations; type: cell-based; conditions: Escherichia coli, fixed BLI concentration (μg/mL) in parentheses in label
# [4] = system: E. coli CDC-149 (NDM-7), PBP3 mutations; type: cell-based; conditions: Escherichia coli
# [5] = system: E. coli CDC-150 (NDM-5), PBP3 mutations; type: cell-based; conditions: Escherichia coli, fixed BLI concentration (μg/mL) in parentheses in label
# [6] = system: E. coli CDC-151 (NDM-5), PBP3 mutations; type: cell-based; conditions: Escherichia coli, fixed BLI concentration (μg/mL) in parentheses in label
# [7] = system: E. coli CDC-162 (NDM-7), PBP3 mutations; type: cell-based; conditions: Escherichia coli
# [8] = system: E. coli CDC-435 (NDM-1), PBP3 mutations; type: cell-based; conditions: Escherichia coli, fixed BLI concentration (μg/mL) in parentheses in label
# [9] = system: MEM-nonsusceptible Enterobacterales with metallo-carbapenemases; type: cell-based; conditions: MEM-nonsusceptible Enterobacterales with metallo-carbapenemases (41), CDC AR Bank; for MIC50 / MIC90: fixed concentration (μg/mL) in label; for MIC50: read-out: MIC50; for MIC90: read-out: MIC90
# [10] = system: Cefepime/taniborbactam-nonsusceptible Enterobacterales with metallo-carbapenemases (25); type: cell-based; conditions: CDC AR Bank; for MIC50 / MIC90: fixed concentration (μg/mL) in label
# [11] = system: Acinetobacter baumannii (46); type: cell-based
# [12] = system: MEM-nonsusceptible Enterobacterales; type: cell-based; conditions: MEM-nonsusceptible Enterobacterales (92), CDC AR Bank
# [13] = system: serine-carbapenemase-producing isolates (Enterobacterales); type: cell-based; conditions: Enterobacterales with serine-carbapenemases (61), CDC AR Bank
# [14] = system: 55 isolates of A. baumannii; type: cell-based, Acinetobacter baumannii; conditions: Acinetobacter baumannii (55), fixed concentration (μg/mL) in label
# 96 P. aeruginosa = type: cell-based, Pseudomonas aeruginosa; conditions: Pseudomonas aeruginosa (96)
# [15] = system: MEM-, imipenem/relebactam-, and ceftolozane/tazobactam-nonsusceptible P. aeruginosa; type: cell-based, Pseudomonas aeruginosa; conditions: for MIC50 / MIC90: Pseudomonas aeruginosa; for MIC50: read-out: MIC50; for MIC90: read-out: MIC90
# [16] = system: Enterobacterales (154), CDC AR Bank; type: cell-based
# [17] = system: MEM-nonsusceptible Enterobacterales with serine-carbapenemases; type: cell-based; conditions: MEM-nonsusceptible Enterobacterales with serine-carbapenemases (42), CDC AR Bank
# [18] = CLSI breakpoints, marked c: breakpoints for β-lactam alone
# [19] = fixed concentration (μg/mL) in label
# [20] = fixed concentration (μg/mL) in label, read-out: MIC50
# [21] = fixed concentration (μg/mL) in label, read-out: MIC90
# [22] = Imipenem/relebactam-nonsusceptible Pseudomonas aeruginosa (43), CLSI breakpoints, marked c: breakpoints for β-lactam alone
# [23] = MEM-nonsusceptible Pseudomonas aeruginosa (76), CLSI breakpoints, marked c: breakpoints for β-lactam alone
# [24] = Imipenem/relebactam-nonsusceptible Pseudomonas aeruginosa (43), fixed concentration (μg/mL) in label
# [25] = MEM-nonsusceptible Pseudomonas aeruginosa (76), fixed concentration (μg/mL) in label
structure (smiles),measurement,setting,value
"CO/N=C(\C(=O)N[C@@H]1C(=O)N2C(C(=O)[O-])=C(C[N+]3(C)CCCC3)CS[C@H]12)c1csc(N)n1 [FEP, cefepime]",MIC50,[1]; read-out: MIC50,> 64 µg/mL
same,MIC90,[1]; read-out: MIC90,> 64 µg/mL
same,MIC,[2],> 64 µg/mL
same,MIC,[3],> 64 µg/mL
same,MIC,[4],> 64 µg/mL
same,MIC,[5],> 64 µg/mL
same,MIC,[6],> 64 µg/mL
same,MIC,[7],> 64 µg/mL
same,MIC,[8],> 64 µg/mL
same,MIC50,[9],> 64 µg/mL
same,MIC90,[9],> 64 µg/mL
same,MIC50,[10],> 64 µg/mL
same,MIC90,[10],> 64 µg/mL
same,CLSI MIC interpretation I (intermediate),[11]; [18],4.3%
same,CLSI MIC interpretation R (resistant),[11]; [18],95.7%
same,CLSI MIC interpretation S (susceptible),[11]; [18],0%
same,MIC50,[11]; [19],64 µg/mL
same,MIC90,[11]; [19],> 256 µg/mL
"C[C@H]1[C@H](NC(=O)/C(=N\OC(C)(C)C(=O)O)c2csc(N)n2)C(=O)N1S(=O)(=O)O [ATM, aztreonam]",CLSI MIC interpretation I (intermediate),[12]; [18],1.1%
same,CLSI MIC interpretation R (resistant),[12]; [18],90.2%
same,CLSI MIC interpretation S (susceptible),[12]; [18],8.7%
same,MIC50,[12]; [20],> 64 µg/mL
same,MIC90,[12]; [21],> 64 µg/mL
same,CLSI MIC interpretation I (intermediate),[13]; [18],3.3%
same,CLSI MIC interpretation R (resistant),[13]; [18],85.2%
same,CLSI MIC interpretation S (susceptible),[13]; [18],11.5%
same,MIC50,[13]; [20],> 64 µg/mL
same,MIC90,[13]; [21],> 64 µg/mL
same,MIC50,[14]; read-out: MIC50,64 µg/mL
same,MIC90,[14]; read-out: MIC90,> 64 µg/mL
same,CLSI MIC interpretation R (resistant),96 P. aeruginosa; [18],47.9%
same,CLSI MIC interpretation S (susceptible),96 P. aeruginosa; [18],39.6%
same,MIC50,96 P. aeruginosa; [20],16 µg/mL
same,MIC90,96 P. aeruginosa; [21],> 64 µg/mL
same,CLSI MIC interpretation (%) I,"[15]; I, intermediate (including susceptible dose-dependent), CLSI breakpoints, last subgroup of Table 2",8.9%
same,CLSI MIC interpretation I (intermediate),[15]; [22],9.3%
same,CLSI MIC interpretation R (resistant),[15]; [22],60.5%
same,CLSI MIC interpretation S (susceptible),[15]; [22],30.2%
same,CLSI MIC interpretation R (resistant),[15]; [23],56.6%
same,CLSI MIC interpretation S (susceptible),[15]; [23],30.3%
same,MIC50,[15]; [24],32 µg/mL
same,MIC90,[15]; [24],> 64 µg/mL
same,MIC50,[15]; [25],32 µg/mL
same,MIC90,[15]; [25],> 64 µg/mL
same,MIC50,"[15]; Table 2, broth microdilution",32 µg/mL
same,MIC90,"[15]; Table 2, broth microdilution",> 64 µg/mL
same,CLSI MIC interpretation (%) R,"[15]; R, resistant, CLSI breakpoints, last subgroup of Table 2",62.2%
same,CLSI MIC interpretation (%) S,"[15]; S, susceptible, CLSI breakpoints, last subgroup of Table 2",28.9%
same,MIC,[2],> 64 µg/mL
same,MIC,[3],> 64 µg/mL
same,MIC,[4],0.5 µg/mL
same,MIC,[5],32 µg/mL
same,MIC,[6],32 µg/mL
same,MIC,[7],> 64 µg/mL
same,MIC,[8],> 64 µg/mL
same,CLSI MIC interpretation I (intermediate),[16]; [18],2.6%
same,CLSI MIC interpretation R (resistant),[16]; [18],80.5%
same,CLSI MIC interpretation S (susceptible),[16]; [18],16.9%
same,MIC50,[16]; [19],> 64 µg/mL
same,MIC90,[16]; [19],> 64 µg/mL
same,CLSI MIC interpretation I (intermediate),[17]; [18],2.4%
same,CLSI MIC interpretation R (resistant),[17]; [18],92.9%
same,CLSI MIC interpretation S (susceptible),[17]; [18],4.8%
same,MIC50,[17]; [20],> 64 µg/mL
same,MIC90,[17]; [21],> 64 µg/mL
same,CLSI MIC interpretation I (intermediate),[9]; [18],0%
same,CLSI MIC interpretation R (resistant),[9]; [18],85.4%
same,CLSI MIC interpretation S (susceptible),[9]; [18],14.6%
same,MIC50,[9],> 64 µg/mL
same,MIC90,[9],> 64 µg/mL
same,CLSI MIC interpretation I (intermediate),[10]; [18],0%
same,CLSI MIC interpretation R (resistant),[10]; [18],96%
same,CLSI MIC interpretation S (susceptible),[10]; [18],4%
same,MIC50,[10],> 64 µg/mL
same,MIC90,[10],> 64 µg/mL

# — article PMC11620503 (Antimicrobial Agents and Chemotherapy, 2024)
